# Measurements: patent publication US8252940B2, “5-substituted-2-imino-thiazolidinone compounds and their use as inhibitors of bacterial infection” (University of Washington, priority 2008, dated 2012)
# Tested on: type III secretion in S. typhimurium
# Experiment: microbe, parasite or virus in culture
# Format: cell-based, Salmonella enterica serovar Typhimurium
# Details: for inhibition at 3.3 µM / inhibition at 330 µM / inhibition at 33 µM: read-out: % inhibition of SipA secretion; for % Secretion: type III secretion in S. typhimurium, SipA secretion by Western blot
# [1] = Salmonella enterica, TYPHIMURIUM
compound,measurement,setting,value
"COc1cc(/C=C2\S/C(=N\c3ccc(CN)cc3)N(c3ccccc3)C2=O)cc(OC)c1O [compound 47, (2Z,5Z)-3-(4-(aminomethyl)phenylimino)-5-(4-hydroxy-3,5-dimethoxybenzyldene)-2-phenylthiazolidin-4-one]",% inhibition of SipA secretion,"3.3 μM, Western blot",8%
same,% inhibition of SipA secretion,"33 μM, Western blot",35%
same,% inhibition of SipA secretion,"330 μM, Western blot",100%
"COc1cc(/C=C2\S/C(=N\c3ccccc3)N(CCCC(=O)OC(C)(C)C)C2=O)cc(OC)c1O [compound 60, t-Butyl-4-((2Z,5Z)-5-(4-hydroxy-3,5-dimethoxybenzylidene)-4-oxo-2-(phenylimino)thiazolidin-3-yl)butanoate]",inhibition at 3.3 µM,[1],35%
same,inhibition at 330 µM,[1],90%
"COc1cc(/C=C2\S/C(=N\c3ccccc3)N(C(CCCNC(=N)N)C(=O)N3CSC[C@H]3C(N)=O)C2=O)cc(OC)c1O (stereo partly drawn) [compound 94, (R)-3-(5-guanidino-2-((2Z,5Z)-5-(4-hydroxy-3,5-dimethoxybenzylidene)-4-oxo-2-(phenylimino)thiazolidin-3-yl)pentanoyl)thiazolidine-4-carboxamide]",inhibition at 3.3 µM,[1],3%
same,inhibition at 33 µM,[1],7%
same,inhibition at 330 µM,[1],89%
COc1cc(/C=C2\S/C(=N\c3ccccc3)N([C@@H](CCCN)C(=O)N[C@@H](Cc3ccc(-c4ccccc4)cc3)C(N)=O)C2=O)cc(OC)c1O [compound 91],% inhibition of SipA secretion,3.3 µM,100 (330) 66 (33) 3 (3.3) %
same,% inhibition of SipA secretion,33 µM,100 (330) 66 (33) 3 (3.3) %
same,% inhibition of SipA secretion,330 µM,100 (330) 66 (33) 3 (3.3) %
"COc1cc(/C=C2\S/C(=N\c3ccccc3)N([C@@H](C)C(=O)N[C@@H](C)C(N)=O)C2=O)cc(OC)c1O [compound 49, (S)-N-((S)-1-amino-1-oxopropan-2-yl)-2-((2Z,5Z)-5-(4-hydroxy-3,5-dimethoxybenzylidene)-4-oxo-2-(phenylimino)thiazolidin-3-yl)propanamide]",inhibition at 33 µM,[1],26%
same,inhibition at 330 µM,[1],94%
COc1cc(/C=C2\SC(=N)N(c3ccccc3)C2=O)cc(OC)c1O [Compound 5],% Secretion,,81.2 ± 0%
"COc1cc(/C=C2\S/C(=N\c3ccccc3)N(C(C(=O)N[C@@H](Cc3ccc(O)cc3)C(N)=O)C(C)C)C2=O)cc(OC)c1O (single isomer, unassigned) [compound 69]",inhibition at 33 µM,[1],32%
same,inhibition at 330 µM,[1],97%
COc1cc(/C=C2\S/C(=N\c3ccccc3)N([C@@H](Cc3ccc(-c4ccccc4)cc3)C(=O)N[C@@H](CCCNC(=N)N)C(N)=O)C2=O)cc(OC)c1O [compound 96],% inhibition of SipA secretion,3.3 µM,100 (330) 95 (33) 54 (3.3) %
same,% inhibition of SipA secretion,33 µM,100 (330) 95 (33) 54 (3.3) %
same,% inhibition of SipA secretion,330 µM,100 (330) 95 (33) 54 (3.3) %
"COc1cc(/C=C2\S/C(=N\c3ccccc3)N([C@@H](C)C(=O)N[C@@H](CCCNC(=N)N)C(N)=O)C2=O)cc(OC)c1O [compound 56, (S)-5-Guanidino-2-((S)-2-((2Z,5Z)-5-(4-hydroxy-3,5-dimethoxybenzylidene)-4-oxo-2-(phenylimino)thiazolidin-3-yl)propanamido)pentanamide]",inhibition at 33 µM,[1],1%
same,inhibition at 330 µM,[1],100%
COc1cc(/C=C2\S/C(=N\c3ccccc3)NC2=O)cc(OC)c1O [Compound 4],% Secretion,,9 ± 6%
O=C1/C(=C/c2ccccc2)S/C(=N\c2ccccc2)N1c1ccccc1 [Compound 7],% Secretion,,90 ± 2%
"COc1cc(/C=C2\S/C(=N\c3ccccc3)N(CCCC(=O)O)C2=O)cc(OC)c1O [compound 61, 4-((2Z,5Z)-5-(4-hydroxy-3,5-dimethoxybenzylidene)-4-oxo-2-(phenylimino)thiazolidin-3-yl)butanoic acid]",inhibition at 3.3 µM,[1],70%
same,inhibition at 330 µM,[1],74%
"COc1cc(/C=C2\S/C(=N\c3ccccc3)N([C@H](C)C(=O)N[C@@H](CCCNC(=N)N)C(N)=O)C2=O)cc(OC)c1O [compound 85, (S)-5-guanidino-2-((R)-2-((2Z,5Z)-5-(4-hydroxy-3,5-dimethoxybenzylidene)-4-oxo-2-(phenylimino)thiazolidin-3-yl)propanamido)pentanamide]",inhibition at 33 µM,[1],31%
same,inhibition at 330 µM,[1],99%
"COc1cc(/C=C2\S/C(=N\c3ccc(CN)cc3)N(c3ccccc3)C2=O)cc(OC)c1O [compound 46, (2Z,5Z)-2-(4-(aminomethyl)phenylimino)-5-(4-hydroxy-3,5-dimethoxybenzyldene)-3-phenylthiazolidin-4-one]",% inhibition of SipA secretion,"3.3 μM, Western blot",7%
same,% inhibition of SipA secretion,"33 μM, Western blot",16%
same,% inhibition of SipA secretion,"330 μM, Western blot",85%
COc1cc(/C=C2\S/C(=N\c3ccccc3)N([C@@H](C)C(=O)N[C@@H](CCCNC(=N)N)C(N)=O)C2=O)cc(OC)c1O [Compound 2],SipA detected in the supernate,"3.8 μM, Western blot",minimal SipA was detected
same,inhibition at 38 µM,"Salmonella enterica, TYPHIMURIUM, read-out: inhibition of detectable secreted SipA",100%
same,% Secretion,,0 ± 0%
"COc1cc(/C=C2\S/C(=N\c3ccccc3)N(C(Cc3ccncc3)C(=O)N[C@@H](CCCNC(=N)N)C(N)=O)C2=O)cc(OC)c1O (stereo partly drawn) [compound 95, (S)-5-guanidino-2-(2-((2Z,5Z)-5-(4-hydroxy-3,5-dimethoxybenzylidene)-4-oxo-2-(phenylimino)thiazolidin-3-yl)-3-(pyridin-4-yl)propanamido)pentanamide]",inhibition at 33 µM,[1],8%
same,inhibition at 330 µM,[1],89%
COc1ccc(N2C(=O)/C(=C/c3cc(OC)c(O)c(OC)c3)S/C2=N\c2ccccc2)cc1 [Compound 3],% Secretion,,0 ± 0%
"COc1cc(/C=C2\S/C(=N\c3ccccc3)N(C(C)C(=O)N[C@@H](Cc3c[nH]c4ccccc34)C(N)=O)C2=O)cc(OC)c1O (stereo partly drawn) [compound 51, N-((S)-1-amino-3-(1H-indol-3-yl)-1-oxopropan-2-yl)-2-((2Z,5Z)-5-(4-hydroxy-3,5-dimethoxybenzylidene)-4-oxo-2-(phenylimino)thiazolidin-3-yl)propanamide]",inhibition at 330 µM,[1],100%
"COc1cc(/C=C2\S/C(=N\c3ccccc3)N([C@@H](C)C(=O)N[C@@H](CCCN)C(N)=O)C2=O)cc(OC)c1O [compound 54, (S)-5-amino-2-((S)-2-((2Z,5Z)-5-(4-hydroxy-3,5-dimethoxybenzylidene)-4-oxo-2-(phenylimino)thiazolidin-3-yl)propanamido)pentanamide]",inhibition at 330 µM,[1],94%
"COc1cc(/C=C2\S/C(=N\c3ccccc3)N(CC(=O)O)C2=O)cc(OC)c1O [compound 57, 2-((2Z,5Z)-5-(4-hydroxy-3,5-dimethoxybenzylidene)-4-oxo-2-(phenylimino)thiazolidin-3-yl)acetic acid]",inhibition at 3.3 µM,[1],51%
same,inhibition at 330 µM,[1],100%
"COc1cc(/C=C2\S/C(=N\c3ccccc3)N(CCCCCCN)C2=O)cc(OC)c1O [compound 45, (2Z,5Z)-3-(6-aminohexyl)-5-(4-hydroxy-3,5-dimethoxybenzylidene)-2-(phenylimino)-thiazolidin-4-one]",inhibition at 3.3 µM,[1],12%
same,inhibition at 33 µM,[1],42%
same,inhibition at 330 µM,[1],95%
COc1cc(CC2SC(=N)NC2=O)cc(OC)c1O (stereo not drawn) [Compound 9],% Secretion,,72 ± 0%
"COc1cc(/C=C2\S/C(=N\c3ccccc3)N([C@@H](C)C(=O)N[C@@H](Cc3ccc(O)cc3)C(N)=O)C2=O)cc(OC)c1O [compound 50, (S)-N-((S)-1-amino-3-(4-hydroxyphenyl)-1-oxopropan-2-yl)-2-((2Z,5Z)-5-(4-hydroxy-3,5-dimethoxybenzylidene)-4-oxo-2-(phenylimino)thiazolidin-3-yl)propanamide]",inhibition at 330 µM,[1],90%
